Laboratory results from ChEMBL document CHEMBL1151125, “Constituents of Michelia Rajaniana. Two new germacranolide amides” (1988).

How the values were obtained:
Type in all cases: functional
Conditions in all cases: read-out: ED50 (the source's name)
A549 = assay: Cytotoxicity against human A549 cells
MCF7 = assay: Cytotoxicity against human MCF7 cells
HT-29 = assay: Cytotoxicity against human HT-29 cells

Measured: EC50

CC(=O)NC[C@@H]1C(=O)O[C@H]2[C@H]1[C@@H](O)C/C(C)=C/CC[C@@]1(C)O[C@@H]21
> 100 mg/L: A549 | MCF7 | HT-29

CC(=O)NC[C@@H]1C(=O)O[C@H]2[C@H]1CC/C(C)=C/CC[C@@]1(C)O[C@@H]21
> 100 mg/L: A549 | MCF7 | HT-29
